# Reference: patent US10869924B2, “PD-L1 antagonist combination treatments” (MERCK PATENT GMBH, priority 2015, dated 2020)
# How the values were obtained:
# [1] = test system: B16F10 melanoma; test: Subcutaneous B16F10 melanoma model, anti-4-1BB and avelumab (Example 3); format: in vivo; details: anti-4-1BB 0.1 mg/mL, avelumab 1 mg/mL, 0.2 mL per mouse ip, 3 doses 3 to 4 days apart, C57BL/6 mice
# Description: Six (6)- to 8-week old female C57BL/6 mice were purchased from the Jackson Laboratories. All animals were housed in a pathogen free vivarium facility at Rinat and experiments were conducted according to the protocols in accordance with the Institutional Animal Care and Use Committee (IACUC) guidelines.
# The B16F10 melanoma cell line was purchased from American Type Culture Collection (ATCC). The MC38 colon carcinoma cell line was kindly provided by Dr. Antoni Ribas at University of California, Los Angeles, Calif. Cells were cultured in Dulbecco's Modified Eagle's Medium (DMEM) supplemented with 10% fetal bovine serum (FBS), 2 mM L-glutamine at 37° C. in 5% carbon dioxide (CO2), and IMPACT-tested for pathogens at Research Animal Diagnostic Laboratory (RADIL) (Columbia, Mo.). Pathogen-free cells growing in an exponential growth phase were harvested and used for tumor inoculation.
# Therapeutic mouse anti-mouse 4-1BB mAb (mouse immunoglobulin G1 [mIgG1]), derived from the parental clone MAB9371 (R&D Systems), was prepared in-house. Avelumab was provided by Merck Serono. Isotype control mIgG1 (clone: MOPC-21) was purchased from BioXcell. Human IgG1 was prepared in-house. Anti-4-1BB and avelumab were diluted to concentrations of 0.1 mg/mL and 1 mg/mL, respectively, in phosphate buffered saline (PBS) (Life Technologies), and dosed at 0.2 mL per mouse intraperitoneally (ip) for 3 doses 3 to 4 days apart.
# C57BL/6 mice were inoculated subcutaneously at the right flank with 0.2×10^6 B16F10 or 0.5×10^6 MC38 cells in 0.1 mL of serum-free DMEM. When tumors reached target size, mice were randomized into treatment groups. Treatment was started on the same day as randomization. Tumor size was measured twice weekly in 2 dimensions using a caliper, and the volume was expressed in cubic millimeters using the formula: V=0.5 L×W^2 where L is the longest diameter of the tumor and W is the diameter perpendicular to L. Body weight was recorded weekly.
# Results were expressed as mean±SEM. Statistical analyses were performed using GraphPad Prism 6.0. One-way or 2-way ANOVA was applied to compare the statistical differences among multiple groups relative to the isotype control. P<0.05 was considered as significant difference.
# Two murine models were used to evaluate the therapeutic efficacy of anti-4-1BB in combination with avelumab. In the B16F10 melanoma model, the average starting tumor size was 67 to 78 mm^3 (range 44 to 114 mm^3; n=7 animals per group) (Table 5). By Day 26 post tumor inoculation, the tumors for isotype, anti-4-1BB alone, and avelumab alone groups reached an average of 1206±397 mm^3, 1979±425 mm^3, and 2112±429 mm^3, respectively (Table 5). By contrast, dramatic tumor suppression (average of 341±146 mm^3) was observed when animals were administered with anti-4-1BB and avelumab concurrently (p<0.0001 vs single agent alone groups) (Table 5).
# [2] = test system: MC38 tumors; test: Flow cytometry of tumor-infiltrating lymphocytes from MC38 tumors after treatment (Example 3); format: in vivo, mouse; details: TILs isolated from MC38 tumors after treatment
# Source text: Antibodies used for cell surface or intracellular staining were purchased from BD Biosciences or eBioscience. They were rat anti-mouse CD4-PerCP-Cy5.5 (clone RM4-5, BD Biosciences), rat anti-mouse CD8a-APC-H7 (clone 53-6.7, BD Biosciences), rat anti-mouse CD25-PE-Cy7 (clone PC61, BD Biosciences), rat anti-mouse CD45-BV510 (clone 30-F11, BD Biosciences), rat anti-mouse CD90.2-FITC (clone 53-2.1, BD Biosciences), rat anti-mouse Eomes-PE (clone: Dan11mag, eBioscience), rat anti-mouse FoxP3-eFluor450 (clone FJK-16s, eBioscience), and rat anti-mouse NKp46-BV421 or -AF647 (clone 29A1.4, BD Biosciences). Live cells were separated from dead cells using LIVE/DEAD Fixable Blue Dead Cell Stain Kit (Invitrogen). […]
# An aliquot of cells was pre-incubated with 10 μg/mL of mouse BD Fc Block (BD Biosciences) for 10 minutes before phenotyping mAbs were added to specifically stain immune cells. […] After removing unbound mAbs, cells were washed twice with FACS staining buffer, fixed in fixative buffer (PBS+2% FBS+1% paraformaldehyde), and stored at 4° C. in the dark until analyzed by flow cytometry. […] Flow cytometry data were acquired using LSR Fortessa (BD Biosciences) and analyzed using FlowJo (TreeStar Inc.).
# Results were expressed as mean±SEM. […]
# Tumor-infiltrating lymphocytes (TILs) were isolated from MC38 tumors after treatment and analyzed for markers associated with anti-tumor immune response. […]
# [3] = in vivo; cited from earlier work
substance,measurement,setting,value
Avelumab: fully human mAb of the IgG1 isotype that specifically targets and blocks PD-L1,"Tumor Measurements of Subcutaneous B16F10 Melanoma, Mean tumor volume",[1]; Day 13 post tumor inoculation (starting tumor size),78 mm^3
same,"Tumor Measurements of Subcutaneous B16F10 Melanoma, Mean tumor volume",[1]; Day 17 post tumor inoculation,327 mm^3
same,"Tumor Measurements of Subcutaneous B16F10 Melanoma, Mean tumor volume",[1]; Day 20 post tumor inoculation,654 mm^3
same,"Tumor Measurements of Subcutaneous B16F10 Melanoma, Mean tumor volume",[1]; Day 24 post tumor inoculation,1304 mm^3
same,"Tumor Measurements of Subcutaneous B16F10 Melanoma, Mean tumor volume",[1]; Day 26 post tumor inoculation,2112 mm^3
same,"Tumor Measurements of Subcutaneous B16F10 Melanoma, Mean tumor volume","[1]; Day 26 post tumor inoculation, listed as avelumab",2112±429 mm^3
same,ratio of CD8+ T cells/regulatory T cell (Treg),[2]; FIG. 2,2.5
same,T-cell frequency (of CD45+ cells) in tumors,"[2]; average, FIG. 1",36%
same,half-life,[3],72 to 120 h
